Data taken from patent US12714682B2, “Calixarene compounds and uses thereof” (UNIVERSITÄT WIEN, priority 2019, dated 2026).
“Also recorded” adds a separate entry of the source.

How the values were obtained:
[1] = test system: C57BL/6J mice; experiment: LPS-induced acute lung inflammation model: lung histopathology; type: in vivo; conditions: SCA-744 60 mg/kg i.p.
Method: (§1) Acute lung inflammation was induced by intratracheal administration of 100 μg LPS (Escherichia coli O111:B4; Sigma Aldrich, St. Louis, MO, USA) dissolved in 60 μl sterile phosphate buffered saline (PBS) under ketamine (120 mg/kg ip.; Calypsol, Gedeon Richter Plc., Budapest, Hungary) and xylazine (6 mg/kg ip.; Sedaxylan, Eurovet Animal Health B.V., Bladel, Netherlands) anaesthesia. 24 h after administration, respiratory function parameters were assessed, and lung samples were harvested for histopathological evaluation.
(§2) SCA-744 (60 mg/kg) and its vehicle were injected intraperitoneally (i.p.), 24 h, 12 h, 20 min before and 12 h after intratracheal administration of LPS. […] 24 h and 20 min before LPS treatment. Respiratory function measurement was performed 24 h after LPS administration
Excised lung tissue samples were formalin-fixed (6%) and embedded in paraffin, 5 μm sections cut and stained with haematoxylin-eosin for histological analysis. Assessment of airway inflammation was performed in a blind manner in order to evaluate perivascular/peribronchial edema, neutrophil, macrophage and lymphocyte inflammatory cell infiltration as well as goblet cell metaplasia on a semiquantitative scale ranging from 0 to 3 in 2 fields of vision from three depths of lung tissue from each animal.

[2] = test system: neuroblastoma cells; experiment: Protection from MPP+ induced oxidative stress, CellTiter-Glo viability; type: cell-based
Method: Several in-vivo and in-vitro studies find that MPP+ exerts oxidative stress on cells^22. MPP+×toxicity is based on its uptake into dopaminergic neurons. MPP+ accumulate into the mitochondria, inhibiting the complex-I leading to ATP depletion, increased reactive oxygen species (ROS) production, and apoptotic cell death^23. 12 h following MPP+ treatment and SCA-744 and CAL-X incubation, cell viability was assessed using a standard ATP method, CellTiter-Glo® Luminescent Cell Viability Assay.

[3] = test system: mice; experiment: CFA-induced chronic arthritis model: joint histology; type: in vivo; conditions: 60 mg/kg i.p. daily, 21-day period
Method: The chronic arthritis was induced by intraplantar (i.pl.) injection of 20 μl complete Freund's adjuvant (CFA, heat-killed Mycobacterium suspended in paraffin oil, 1 mg/ml; Sigma Aldrich, St. Louis, MO, USA) into the right hind paw and 20 μl subcutaneously (s.c.) into the tail root. An additional s.c. injection (20 μl) was administered on the following day (day 1) into the tail root in order to potentiate the systemic effects mimicking the human condition.
The excised tibiotarsal joints are fixed in 4% buffer formaldehye, decalcified and paraffin-embedded, sliced into sections (5 μm) and stained with hematoxylin and esosin. Arthritic changes are scored by a blinded observer using a scale of 0 to 3 according to 1) mononuclear cells infiltration into areolar tissue, 2) synovial hyperplasia, 3) cartilage destruction, 4) bone erosion.

[4] = test system: C57BL/6J mice; experiment: LPS-induced acute lung inflammation model: respiratory function (plethysmography); type: in vivo; conditions: 100 μg LPS intratracheal, measured 24 h after; SCA-744 60 mg/kg i.p. 4 doses; dexamethasone 5 mg/kg ip. 2 doses
Method: as §1, §2
Buxco FinePoint Non-invasive Airway Mechanics (NAM) double chamber plethysmography (DSI Harvard Bioscience Inc.) was used to monitor ventilatory and bronchoconstriction parameters in awake, restrained animals without the use of anesthesia. The plethysmograph measures the nasal and thoracic flows independently. […] After 10 minutes of acclimatization period baseline pulmonary functions were assessed, such as the frequency, tidal volume, minute ventilation, expiratory/inspiratory time, peak expiratory/inspiratory flow, and specific airway resistance, a measure of bronchoconstriction.

[5] = test system: HELA cells; experiment: Protection from H2O2 induced stress; type: cell-based
Method: Using an incubation time of 24 h, it was sufficient to determine the toxicity and rescue effect of SCA-744 in HELA cells.

[6] = test system: Human neuroblastoma SH-SY5Y cells; experiment: Untargeted metabolic profiling of SH-SY5Y cells; type: cell-based; conditions: 500 μM, 24 h
Method: Human neuroblastoma SH-SY5Y cells were differentiated and treated with 500 μM SCA-744 for 24 h. Cell pellets were extracted using a MeOH:ACN:H2O (2:2:1, v/v) solvent mixture. Untargeted metabolic profiling was performed at the VBCF Metabolomic Unit (www.vbcf.ac.at) employing high-resolution mass spectrometry.
The untarged metabolomic data was analyzed with the Compound Discover Software (version 3.1). The first set of metabolites were analyzed through the internal database of the Vienna Biocenter Core facility. The measured retention time of a compound was compared to the retention time of a standard previously measured. In the case there was a MS2 spectrum available, this was also taken into consideration for identification. The second set of metabolites was annotated with mzCloud (match at least 75%). Identification was based on mzCloud database comparison of measured molecular weight (5 ppm tolerance) and MS2 spectra. The third set of metabolites were annotated via ChemSpider identification (CSID) through molecular weight matching (max. mass tolerance 5 ppm). P-values were calculated by the Compound Discover Software from biological and technical (T1-T2, MS) replicates. For further annotations KEGG, HMDB, BioCyc, Metabolika and PubChem databases were used.
The metabolites with a false discovery rate (FDR)<0.05 along with p-values and corresponding fold-change were extracted and subjected to chemical and metabolic network enrichment analysis. Enrichment analysis based on chemical similarity was conducted using ChemRich that is independent of biochemical pathway assignments, but rather utilizes Tanimoto substructure similarity coefficients and medical subject headings ontology to generate non-overlapping clusters of metabolites into distinct chemical classes. Statistical testing was determined by Kolmogorv-Smirnov testing and an FDR adjusted P value of <0.05 was considered significant.
Comparison of relative metabolite abundance between control and -treated cells was determined by unpaired univariate analysis. Calculated P values were adjusted based on an FDR of 0.05 and filtered by log Fold-Change (log FC) analysis (Table 3). For illustrative purposes the metabolites are annotated on the resulting volcano plot with log FC>1 log FC<−2. A total of 261 annotated metabolites were found with an FDR<0.05.

[7] = test system: SH-SY5Y neuroblastoma cells; experiment: MPP+ induced mitochondria fragmentation in SH-SY5Y cells (MitoTracker confocal imaging); type: cell-based, human; conditions: MPP+ 0.5 mM 48 hours, SCA-744 500 μM
Method: To test whether SCA-744 would be able to rescue cells from oxidative damage induced by mitochondrial dysfunction, SH-SY5Y neuroblastoma cells were treated with 1-methyl-4-phenylpyridinium (MPP+) (0.5 mM, 48 hours) to induce mitochondria fragmentation. […] To visualize mitochondria, cells were incubated with MitoTracker Red CMXRos, a mildly thiol-reactive chloromethyl moiety for mitochondria labelling (MitoTracker Red CMXRos #9082 Cell Signaling), fixed and mounted. Mitochondrial morphology was imaged with a laser scanning confocal microscope LSM710 Zeiss.

O=S(=O)(O)c1cc2c(O)c(c1)Cc1cc(S(=O)(=O)O)cc(c1O)Cc1cc(S(=O)(=O)O)cc(c1O)Cc1cc(S(=O)(=O)O)cc(c1O)C2 [SCA-744, 4-sulfocalix[4]arene]
pathological changes in perivascular oedema and perivascular/peribronchial infiltration by neutrophils and macrophages [1]: prevented or greatly reduced the pathological changes
semiquantitative pathology scores (oedema, granulocytes, macrophages, composite; scale 0 to 3) ([1]; dexamethasone 5 mg/kg ip.): not statistically significantly different from untreated controls
protection from MPP+ induced apoptosis / damage ([2]; 0.1-1000 μM, 12 h): protects against oxidative stress from MPP+ induced damage; also recorded: protected neuroblastoma cells from MPP+ induced apoptosis
concentration for MPP+ protection ([2]; 12 h following MPP+ treatment, CellTiter-Glo): 1 µM
synovial hyperplasia score (scale 0 to 3) [3]: significantly lower
respiratory function parameters (fBPM, FRC, Te, Rpef, Ti) versus control animals [4]: significantly improved; also recorded: did not induce statistically significant alterations
EC50 ([5]; Homo sapiens, HELA, 24 h incubation, H2O2 50 mM, read-out: EC50 rescue from H2O2 toxicity): 200 nM
protection from H2O2 induced damage ([5]; mammalian cells, FIG. 20): protects against oxidative stress from H2O2 induced damage
Glycolysis and NADH, as well as ATP [6]: significant down-regulated
Hypoxanthine and Inosine abundance [6]: highly significant up-regulated
Lysophosphatidyl (LPI) abundance [6]: most up-regulated metabolite
Thymine and adenine nucleotides, dipeptides and amino acids [6]: down-regulated
pharmacological response in metabolic analysis [6]: altered lipid metabolism, down-regulated glycolysis and reduction of NADH, ATP
mitochondria integrity after MPP+ [7]: protects against cell death and restores mitochondria integrity; also recorded: cells maintained the integrity of mitochondria
